SMILES strings stand for the structures. Where a SMILES comes first, the peptide text is derived from it. The star is where a group is joined. Propanoyl(3-(4-F-phenyl)) = O=C(CCc1ccc(F)cc1)*; X20 = CC(=O)Oc1ccc2cc(C(=O)*)ccc2c1; X14 = O=C(c1cc2cc(O)ccc2[nH]1)*; X2 = O=C(c1cc2cc(Cl)ccc2[nH]1)*; X31 = COc1ccc(/C=C\C(=O)*)cc1OC; X16 = O=C(/C=C\c1ccccc1O)*; Boc = CC(C)(C)OC(=O)*

The target of this test is Gastrin/cholecystokinin type B receptor (Cavia porcellus). Put plainly: Inhibition of specific binding of [125I]BH-CCK-8 in guinea pig cortex.
Regarding `COc1ccc(/C=C\C(=O)NCCCC[C@H](NC(=O)[C@H](Cc2c[nH]c3ccccc23)NC(=O)OC(C)(C)C)C(=O)N[C@@H](CC(=O)O)C(=O)N[C@@H](Cc2ccccc2)C(N)=O)cc1OC` [3-{2-[2-tert-Butoxycarbonylamino-3-(1H-indol-3-yl)-propionylamino]-6-[3-(3,4-dimethoxy-phenyl)-acryloylamino]-hexanoylamino}-N-(1-carbamoyl-2-phenyl-ethyl)-succinamic acid; hydrate] (Boc-WK(X31)DF-NH2), the IC50 (commonly the concentration at which inhibition is half-maximal) is 4 µM.

Turning to `CC(C)(C)OC(=O)N[C@@H](Cc1c[nH]c2ccccc12)C(=O)N[C@@H](CCCCNC(=O)c1cc2cc(O)ccc2[nH]1)C(=O)N[C@@H](CC(=O)O)C(=O)N[C@@H](Cc1ccccc1)C(N)=O` (Boc-WK(X14)DF-NH2), the IC50 is 0.83 µM.

Compound `CC(=O)Oc1ccc2cc(C(=O)NCCCC[C@H](NC(=O)[C@H](Cc3c[nH]c4ccccc34)NC(=O)OC(C)(C)C)C(=O)N[C@@H](CC(=O)O)C(=O)N[C@@H](Cc3ccccc3)C(N)=O)ccc2c1` (Boc-WK(X20)DF-NH2) displayed an IC50 of 1.4 µM.

Compound `CC(C)(C)OC(=O)N[C@@H](Cc1c[nH]c2ccccc12)C(=O)N[C@@H](CCCCNC(=O)CCc1ccc(F)cc1)C(=O)N[C@@H](CC(=O)O)C(=O)N[C@@H](Cc1ccccc1)C(N)=O` [3-{2-[2-tert-Butoxycarbonylamino-3-(1H-indol-3-yl)-propionylamino]-6-[3-(4-fluoro-phenyl)-propionylamino]-hexanoylamino}-N-(1-carbamoyl-2-phenyl-ethyl)-succinamic acid; hydrate] (Boc-WK(Propanoyl(3-(4-F-phenyl)))DF-NH2) had an IC50 of 9.9 µM.

Regarding `CC(C)(C)OC(=O)N[C@@H](Cc1c[nH]c2ccccc12)C(=O)N[C@@H](CCCCNC(=O)/C=C\c1ccccc1O)C(=O)N[C@@H](CC(=O)O)C(=O)N[C@@H](Cc1ccccc1)C(N)=O` [3-{2-[2-tert-Butoxycarbonylamino-3-(1H-indol-3-yl)-propionylamino]-6-[3-(2-hydroxy-phenyl)-acryloylamino]-hexanoylamino}-N-(1-carbamoyl-2-phenyl-ethyl)-succinamic acid; hydrate] (Boc-WK(X16)DF-NH2), the IC50 worked out at 0.21 µM.

With `CC(C)(C)OC(=O)N[C@@H](Cc1c[nH]c2ccccc12)C(=O)N[C@@H](CCCCNC(=O)c1cc2cc(Cl)ccc2[nH]1)C(=O)N[C@@H](CC(=O)O)C(=O)N[C@@H](Cc1ccccc1)C(N)=O` (Boc-WK(X2)DF-NH2), the IC50 turned out to be 5.2 µM.

Source of the values: BindingDB's records for doi:10.1021/jm00089a010 (Abbott Laboratories, 1992).
